One assay concerns the target T1, apo-cGAS (Mus musculus, UniProt Q8C6L5).
T1 construct: full-length (for high-throughput screening) and residues 147–507 (for structural study) of cGAS; His6-SUMO (N, cleaved yes); made in house; host or cells: E. coli BL21(DE3) RIL
As to the kind of experiment: Isothermal titration calorimetry, cGAS in absence of dsDNA. Type of assay: binding. Here is the method: ITC measurements were performed at 25 °C using a MicroCal auto-iTC200 calorimeter (MicroCal, LLC). Purified truncated mouse cGAS was dialyzed against 40 mM HEPES buffer (pH 7.5) and 300 mM NaCl for 24 h at 4 °C. Dialysis led to some precipitation, which were removed through centrifugation followed by collection of the supernatant. The concentration of the protein in supernatant was measured using Pierce® BCA protein assay. The protein was flash frozen in liquid N2 and stored at −80 °C. For the ITC assay, the dialyzed protein was prediluted to 20 µM in the dialysis buffer and diluted to a final concentration of 10 µM in a final buffer containing 40 mM HEPES, 1% DMSO, 150 mM NaCl, 0.01% Tween-20 and + /− dsDNA 10 µM and + /− ATP or GTP 1 mM. Then, 2 μl RU.365 100 µM, dissolved in the buffer aforementioned, were injected into 0.2 ml of protein in the chamber every 150 s. Data for raw ITC and thermodynamic curves, each from one experiment, were downloaded after analysis using Affinimeter software and plotted using GraphPad Prism (7.01). The software calculates error bars as an indication of the contribution of the raw data noise that is determined from the integral of the standard deviation of the baseline during the injection.

Another assay has as its target T2, m-cGAS (Mus musculus, UniProt Q8C6L5).
T2 construct: recombinant full-length mouse cGAS in reaction buffer; His6-SUMO (N, cleaved yes); made in house; host or cells: E. coli BL21(DE3) RIL
As to the kind of experiment: Kinetics of m-cGAS in the presence of RU.365 (RF-MS). The format is biochemical. Here is the method: Kinetics parameters of cGAMP formation were determined in the reaction mixtures carried out in 20 μl volumes in 384 small volume deep well polypropylene plates. The final concentration of m-cGAS enzyme and dsDNA were 60 nM and 300 nM, respectively. To determine if RU.365 was competitive against ATP and/or GTP, different concentrations of RU.365 ranging from 0.8 µM to 6.3 µM were tested, keeping one substrate fixed at 300 µM while varying the other one. Apparent K m ^app and apparent V max ^app values were also calculated in the presence and absence of the small molecule. RU.365 was diluted by half in DMSO for a total of four dilutions where the highest final concentration in the assay was 6.3 μM. Ten microliters of reaction buffer composed of 20 mM Tris-HCl pH 7.4, 150 mM NaCl, 5 mM MgCl2, and 0.01% Tween-20 were dispensed per well using a Thermo Multidrop Combi dispenser (Thermo Scientific). The liquid was collected at the well bottom by centrifugation for 30 s at 180×g. In all, 0.1 μl of RU.365 serially diluted in DMSO were dispensed with a Janus 384 MDT NanoHead (PerkinElmer).
Each reaction containing a variable substrate concentration was performed in a different plate. A separate column containing different amounts of cGAMP was also included in each plate in order to construct the calibration curve and calculate the µmoles of product formed. Twenty different master mix solutions were prepared in reaction buffer supplemented with 2 mM DTT and 1.2 µM dsDNA. Of these, Ten master mix solutions were prepared with different concentrations of GTP ranging from 2.36 µM to 1.2 mM while keeping the concentration of ATP fixed at 1.2 mM and vice versa for the other 10 master mix solutions. Five microliters of these solutions with variable substrate concentration were added for each reaction. Finally, the reaction was started by adding 5 μl of 0.24 μM recombinant full-length mouse cGAS in reaction buffer supplemented with 2 mM DTT to each well of the plate followed by centrifugation for 30 s at 180×g and incubation for 120 min at room temperature. The reaction was stopped by addition of 60 μl of 0.5% (v/v) formic acid per well. The plates were centrifuged for 30 s at 180×g and sealed with a Velocity11 PlateLoc thermal plate sealer. To calculate IC50 log (inhibitor) vs. response, a variable slope non-linear fit from GraphPad Prism (7.01) was used, using three replicate experiments; error bars represent SD. The kinetics parameters were obtained fitting the curves to an allosteric sigmoidal nonlinear fit using the same software.

The test system of assay [1] is BMDM cells from Trex1 −/− mice. As to the kind of experiment: IFNB1 expression by qRT-PCR in BMDMs from Trex1 −/− mice. As to conditions: 24 h treatment at IC50, qRT-PCR. Type of assay: cell-based, mouse. The source says:
C57BL/6 wild type and Trex1 ^−/− offspring from Trex1 ^+/− crosses (a kind gift from Dr Dan Stetson, University of Washington) were harvested at 6–8 weeks of age. Femurs and tibias were removed from age- and sex-matched mice. The ends were clipped and marrow pushed from bones via syringe. Clumps were broken apart via pipetting, rinsed, and pelleted in PBS, passed through a cell strainer, and plated in seven 100 mm petri dishes per mouse. Cells were matured in media described under the methods for cell lines with an additional 10 ng ml^−1 M-CSF (for a total of 20 ng ml^−1 M-CSF during the maturation period). On Day 7, cells were counted and re-plated at 5 × 10^5 cells ml^−1 in 100 mm petri dishes. BMDMs were maintained by adding an equal volume of media to each dish every 2 days after harvesting and performing a complete media change every 4 days after harvesting. IACUC protocols for humane termination of mice for Vanderbilt University were strictly followed.
BMDMs were incubated in the presence of DMSO or the various inhibitors, then harvested 24 h later. RNA was extracted using Trizol and chloroform. […] Real-time PCR against murine Actb1 and IFNB1 (see Supplementary Table 5 for primer sequences used) was carried out and the data was analyzed as previously described in the method section for cytokine analysis in RAW macrophages.

[2] abbreviates: varying ATP, GTP fixed, RU.365 0.8 µM.
[3] abbreviates: varying ATP, GTP fixed, RU.365 1.6 µM.
Setting [4] is: varying ATP, GTP fixed, RU.365 3.2 µM.
Setting [5] is: varying ATP, GTP fixed, RU.365 6.3 µM.
Where [6] appears, read: varying GTP, ATP fixed, RU.365 0.8 µM.
Setting [7] is: varying GTP, ATP fixed, RU.365 1.6 µM.
Setting [8] is: varying GTP, ATP fixed, RU.365 3.2 µM.
Setting [9] is: varying GTP, ATP fixed, RU.365 6.3 µM.

Consider two compounds from publication PMC5622107, “Small molecule inhibition of cGAS reduces interferon expression in primary macrophages from autoimmune mice” (Nature Communications, 2017).

T1 sequence (Q8C6L5 147-507): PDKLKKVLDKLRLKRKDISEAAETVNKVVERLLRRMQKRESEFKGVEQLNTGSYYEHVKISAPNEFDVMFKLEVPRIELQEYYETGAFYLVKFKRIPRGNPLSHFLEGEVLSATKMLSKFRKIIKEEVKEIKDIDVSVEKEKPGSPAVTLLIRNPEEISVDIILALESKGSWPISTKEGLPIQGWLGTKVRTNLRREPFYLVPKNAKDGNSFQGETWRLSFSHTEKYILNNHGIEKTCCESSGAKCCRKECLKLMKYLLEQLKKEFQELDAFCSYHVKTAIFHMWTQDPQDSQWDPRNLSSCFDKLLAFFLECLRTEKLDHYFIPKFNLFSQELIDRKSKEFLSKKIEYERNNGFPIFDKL
T2 sequence (Q8C6L5 whole entry): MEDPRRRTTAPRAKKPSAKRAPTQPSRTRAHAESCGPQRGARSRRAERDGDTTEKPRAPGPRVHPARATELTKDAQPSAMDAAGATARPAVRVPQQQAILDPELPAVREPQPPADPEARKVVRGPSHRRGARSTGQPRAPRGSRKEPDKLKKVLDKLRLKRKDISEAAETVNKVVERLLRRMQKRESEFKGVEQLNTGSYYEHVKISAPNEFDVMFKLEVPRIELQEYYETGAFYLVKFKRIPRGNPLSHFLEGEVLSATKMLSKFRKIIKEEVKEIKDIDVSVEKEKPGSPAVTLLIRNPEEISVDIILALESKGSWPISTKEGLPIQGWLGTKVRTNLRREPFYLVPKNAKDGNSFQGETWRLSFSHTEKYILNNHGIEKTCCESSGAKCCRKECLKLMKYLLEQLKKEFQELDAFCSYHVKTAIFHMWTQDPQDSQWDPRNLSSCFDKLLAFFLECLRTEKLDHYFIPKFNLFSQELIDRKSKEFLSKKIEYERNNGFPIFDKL

On apo-cGAS, `Cc1nn(-c2nc3ccccc3[nH]2)c(O)c1C1OC(=O)c2ccccc21` (centres unmarked) [RU166365] yielded a Kd of 98.5 nM. Also, at apo-cGAS, the “T*ΔS” value is -1.511 kcal/mol. For the same compound, the rM at apo-cGAS was determined as 0.9384. Also, the ΔG on apo-cGAS is -9.559 kcal/mol. The ΔH on apo-cGAS is -11.07 kcal/mol. In addition, the “mechanism of inhibition against ATP or GTP” value on m-cGAS is given as “non-competitive inhibitor”. Also, the Kmapp is recorded as 109.1 µM on m-cGAS (setting [2]); 115.5 µM at m-cGAS (setting [3]); 113.4 µM on m-cGAS (setting [4]); 107.3 µM on m-cGAS (setting [5]); 77.8 µM at m-cGAS (setting [6]); 89.7 µM on m-cGAS (setting [7]). In addition, the values for the Kmapp at m-cGAS (setting [8]) and at m-cGAS (setting [9]) were 79.7 µM and 89.4 µM, respectively. Moreover, the turnover number (kcat) is 0.283 s⁻¹ at m-cGAS (setting [2]); 0.233 s⁻¹ at m-cGAS (setting [3]); 0.152 s⁻¹ on m-cGAS (setting [4]); 0.0717 s⁻¹ on m-cGAS (setting [5]); 0.283 s⁻¹ at m-cGAS (setting [6]); 0.233 s⁻¹ on m-cGAS (setting [7]). Moreover, the catalytic constant (kcat) on m-cGAS (setting [8]) is 0.152 s⁻¹; on m-cGAS (setting [9]), 0.0717 s⁻¹.
As to `Cc1nn(-c2nc3ccc(Cl)c(Cl)c3[nH]2)c(O)c1C1OC(=O)c2ccccc21` (centres unmarked) [RU320521, 3-[1-(6,7-dichloro-1H-benzimidazol-2-yl)-5-hydroxy-3-methyl-pyrazol-4-yl]-3H-isobenzofuran-1-one], the IFNB1 expression result in assay [1] is “reduced IFNB1 expression”.
